According to patent US20130230459A1, “RADIOLABELLED mGluR2 PET LIGANDS” (Janssen Pharmaceuticals, Inc., priority 2010, published 2013):
Several values for one entry are separate records, joined by “and”; a condition that tells them apart may be missing. Identical values can stand only once. Each block holds one molecule with its values, some of them ahead of it.

Assay: Biodistribution studies of 11C tracers
Assay type: in vivo, Wistar rats
Conditions: for SUV Blood / SUV Cerebellum / SUV Cerebrum total / SUV Cortex / SUV Hippocampus / SUV Striatum: normalized for body weight
Description: Biodistribution studies were carried out in healthy male Wistar rats (body weight 200-450 g) at 2 min, 30 min and 60 min post injection (p.i.) (n=3/time point). Rats were injected with about 11 MBq (2 min, 30 min analysis) or 22 MBq (60 min analysis) of the tracer via tail vein under anesthesia (2.5% isoflurane in O2 at 1 L/min flow rate) and sacrificed by decapitation at above specified time points. Blood and major organs were collected in tared tubes and weighed. The radioactivity in blood, organs and other body parts was measured using an automated gamma counter. The distribution of radioactivity in different parts of the body at different time points p.i. of the tracer was calculated and expressed as percentage of injected dose (% ID), and as percentage of injected dose per gram tissue (% ID/g) for the selected organs. % ID is calculated as cpm in organ/total cpm recovered. For calculation of total radioactivity in blood, blood mass was assumed to be 7% of the body mass.

% ID Blood (2 min p.i.): 6.0 % ID and 6.0 ± 1.3 % ID
% ID Carcass (2 min p.i.): 38.5 ± 2.5 % ID
% ID Cerebellum (2 min p.i.): 0.15 % ID and 0.149 ± 0.054 % ID
% ID Cerebrum total (2 min p.i.): 0.46 % ID and 0.456 ± 0.114 % ID
% ID Cortex (2 min p.i.): 0.053 ± 0.025 % ID
% ID Heart (2 min p.i.): 4.3 ± 0.3 % ID
% ID Hippocampus (2 min p.i.): 0.017 ± 0.005 % ID
% ID Intestines (2 min p.i.): 8.5 ± 0.2 % ID
% ID Kidneys (2 min p.i.): 7.8 ± 1.1 % ID
% ID Liver (2 min p.i.): 32.3 ± 3.2 % ID
% ID Lungs (2 min p.i.): 1.8 ± 0.1 % ID
% ID Rest of cerebrum (2 min p.i.): 0.387 ± 0.084 % ID
% ID Spleen + Pancreas (2 min p.i.): 1.5 ± 0.3 % ID
% ID Stomach (2 min p.i.): 1.8 ± 0.1 % ID
% ID Striatum (2 min p.i.): 0.026 ± 0.012 % ID
% ID Urine (2 min p.i.): 0.1 ± 0.0 % ID
Total brain uptake (2 min p.i.): 0.64 % ID and 0.64 ± 0.1 % ID
% ID Blood (30 min p.i.): 3.9 ± 0.1 % ID
% ID Carcass (30 min p.i.): 62.97 ± 2.4 % ID
% ID Cerebellum (30 min p.i.): 0.152 ± 0.023 % ID
% ID Cerebrum total (30 min p.i.): 0.637 ± 0.078 % ID
% ID Cortex (30 min p.i.): 0.071 ± 0.006 % ID
% ID Heart (30 min p.i.): 1.8 ± 0.1 % ID
% ID Hippocampus (30 min p.i.): 0.021 ± 0.004 % ID
% ID Intestines (30 min p.i.): 9.2 ± 1.4 % ID
% ID Kidneys (30 min p.i.): 3.3 ± 0.2 % ID
% ID Liver (30 min p.i.): 16.2 ± 0.4 % ID
% ID Lungs (30 min p.i.): 0.8 ± 0.0 % ID
% ID Rest of cerebrum (30 min p.i.): 0.511 ± 0.063 % ID
% ID Spleen + Pancreas (30 min p.i.): 1.1 ± 0.1 % ID
% ID Stomach (30 min p.i.): 1.8 ± 0.4 % ID
% ID Striatum (30 min p.i.): 0.034 ± 0.005 % ID
% ID Urine (30 min p.i.): 0.3 ± 0.0 % ID
Total brain uptake (30 min p.i.): 0.80 ± 0.1 % ID
% ID Blood (60 min p.i.): 3.4 % ID and 3.4 ± 0.2 % ID
% ID Carcass (60 min p.i.): 63.7 ± 1.8 % ID
% ID Cerebellum (60 min p.i.): 0.172 ± 0.030 % ID
% ID Cerebrum total (60 min p.i.): 0.598 ± 0.036 % ID
% ID Cortex (60 min p.i.): 0.070 ± 0.002 % ID
% ID Heart (60 min p.i.): 1.2 ± 0.1 % ID
% ID Hippocampus (60 min p.i.): 0.026 ± 0.002 % ID
% ID Intestines (60 min p.i.): 11.8 ± 0.0 % ID
% ID Kidneys (60 min p.i.): 2.6 ± 0.2 % ID
% ID Liver (60 min p.i.): 13.7 ± 1.3 % ID
% ID Lungs (60 min p.i.): 0.7 ± 0.0 % ID
% ID Rest of cerebrum (60 min p.i.): 0.466 ± 0.033 % ID
% ID Spleen + Pancreas (60 min p.i.): 1.4 ± 0.5 % ID
% ID Stomach (60 min p.i.): 2.0 ± 0.4 % ID
% ID Striatum (60 min p.i.): 0.035 ± 0.005 % ID
% ID Urine (60 min p.i.): 0.4 ± 0.1 % ID
% ID present in liver and intestines (60 min p.i.): 25.5 % ID
% ID present in the urinary system (60 min p.i.): 3.0 % ID
Total brain uptake (60 min p.i.): 0.78 ± 0.0 % ID
SMILES: [11CH3]Oc1ccc(F)c(F)c1C1CCN(c2ccn3c(CC4CC4)nnc3c2Cl)CC1 [[^11C]B-10, 8-chloro-3-(cyclopropylmethyl)-7-[4-[2,3-difluoro-6-[^11C]methoxyphenyl]-1-piperidinyl]-1,2,4-triazolo[4,3-a]pyridine]
SUV Blood (2 min p.i.): 0.90 ± 0.02
SUV Cerebellum (2 min p.i.): 1.59 ± 0.06
SUV Cerebrum total (2 min p.i.): 1.12 ± 0.03
SUV Cortex (2 min p.i.): 1.16 and 1.16 ± 0.04
SUV Hippocampus (2 min p.i.): 1.11 ± 0.08
SUV Striatum (2 min p.i.): 1.37 ± 0.05
SUV Blood (30 min p.i.): 0.50 ± 0.00
SUV Cerebellum (30 min p.i.): 1.68 and 1.68 ± 0.05
SUV Cerebrum total (30 min p.i.): 1.34 ± 0.03
SUV Cortex (30 min p.i.): 1.39 and 1.39 ± 0.05
SUV Hippocampus (30 min p.i.): 0.93 ± 0.02
SUV Striatum (30 min p.i.): 1.39 ± 0.03
SUV Blood (60 min p.i.): 0.50 ± 0.00
SUV Cerebellum (60 min p.i.): 1.52 ± 0.02
SUV Cerebrum total (60 min p.i.): 1.19 ± 0.01
SUV Cortex (60 min p.i.): 1.08 ± 0.01
SUV Hippocampus (60 min p.i.): 0.94 ± 0.01
SUV Striatum (60 min p.i.): 1.55 ± 0.01

% ID Blood (2 min p.i.): 4.3 % ID and 4.3 ± 0.6 % ID
% ID Carcass (2 min p.i.): 38.4 ± 2.6 % ID
% ID Cerebellum (2 min p.i.): 0.17 % ID and 0.174 ± 0.039 % ID
% ID Cerebrum total (2 min p.i.): 0.69 % ID and 0.691 ± 0.146 % ID
% ID Cortex (2 min p.i.): 0.097 ± 0.019 % ID
% ID Heart (2 min p.i.): 4.6 ± 0.6 % ID
% ID Hippocampus (2 min p.i.): 0.028 ± 0.008 % ID
% ID Intestines (2 min p.i.): 8.5 ± 0.3 % ID
% ID Kidneys (2 min p.i.): 6.6 ± 0.7 % ID
% ID Liver (2 min p.i.): 33.5 ± 1.4 % ID
% ID Lungs (2 min p.i.): 1.5 ± 0.1 % ID
% ID Rest of cerebrum (2 min p.i.): 0.535 ± 0.121 % ID
% ID Spleen + Pancreas (2 min p.i.): 1.4 ± 0.1 % ID
% ID Stomach (2 min p.i.): 1.4 ± 0.2 % ID
% ID Striatum (2 min p.i.): 0.032 ± 0.008 % ID
% ID Urine (2 min p.i.): 0.1 ± 0.0 % ID
Total brain uptake (2 min p.i.): 0.88 % ID and 0.88 ± 0.2 % ID
% ID Blood (30 min p.i.): 2.7 ± 0.9 % ID
% ID Carcass (30 min p.i.): 50.9 ± 3.4 % ID
% ID Cerebellum (30 min p.i.): 0.291 ± 0.088 % ID
% ID Cerebrum total (30 min p.i.): 0.914 ± 0.140 % ID
% ID Cortex (30 min p.i.): 0.118 ± 0.041 % ID
% ID Heart (30 min p.i.): 2.5 ± 0.8 % ID
% ID Hippocampus (30 min p.i.): 0.045 ± 0.005 % ID
% ID Intestines (30 min p.i.): 10.4 ± 1.2 % ID
% ID Kidneys (30 min p.i.): 4.3 ± 1.0 % ID
% ID Liver (30 min p.i.): 22.7 ± 3.0 % ID
% ID Lungs (30 min p.i.): 1.1 ± 0.5 % ID
% ID Rest of cerebrum (30 min p.i.): 0.704 ± 0.112 % ID
% ID Spleen + Pancreas (30 min p.i.): 1.4 ± 0.2 % ID
% ID Stomach (30 min p.i.): 3.7 ± 0.3 % ID
% ID Striatum (30 min p.i.): 0.047 ± 0.008 % ID
% ID Urine (30 min p.i.): 0.3 ± 0.1 % ID
Total brain uptake (30 min p.i.): 1.23 ± 0.2 % ID
% ID Blood (60 min p.i.): 2.0 % ID and 2.0 ± 0.0 % ID
% ID Carcass (60 min p.i.): 55.8 ± 9.4 % ID
% ID Cerebellum (60 min p.i.): 0.142 ± 0.029 % ID
% ID Cerebrum total (60 min p.i.): 0.558 ± 0.042 % ID
% ID Cortex (60 min p.i.): 0.080 ± 0.022 % ID
% ID Heart (60 min p.i.): 1.2 ± 0.2 % ID
% ID Hippocampus (60 min p.i.): 0.024 ± 0.006 % ID
% ID Intestines (60 min p.i.): 15.6 ± 2.7 % ID
% ID Kidneys (60 min p.i.): 2.1 ± 0.2 % ID
% ID Liver (60 min p.i.): 20.1 ± 7.0 % ID
% ID Lungs (60 min p.i.): 0.6 ± 0.1 % ID
% ID Rest of cerebrum (60 min p.i.): 0.421 ± 0.010 % ID
% ID Spleen + Pancreas (60 min p.i.): 0.7 ± 0.0 % ID
% ID Stomach (60 min p.i.): 1.7 ± 0.4 % ID
% ID Striatum (60 min p.i.): 0.033 ± 0.008 % ID
% ID Urine (60 min p.i.): 0.3 ± 0.1 % ID
% ID present in liver and intestines (60 min p.i.): 35.7 % ID
% ID present in the urinary system (60 min p.i.): 2.4 % ID
Total brain uptake (60 min p.i.): 0.71 ± 0.0 % ID
% ID present in the carcass (at all time points examined): ~50 % ID
SMILES: [11CH3]Oc1c(F)ccc(F)c1C1CCN(c2ccn3c(CC4CC4)nnc3c2Cl)CC1 [[^11C]B-2, 8-chloro-3-(cyclopropylmethyl)-7-[4-(3,6-difluoro-2-[^11C]methoxyphenyl)-1-piperidinyl]-1,2,4-triazolo[4,3-a]pyridine]
SUV Blood (2 min p.i.): 0.60 ± 0.01
SUV Cerebellum (2 min p.i.): 1.59 ± 0.03
SUV Cerebrum total (2 min p.i.): 1.32 ± 0.03
SUV Cortex (2 min p.i.): 1.46 ± 0.03
SUV Hippocampus (2 min p.i.): 0.90 ± 0.01
SUV Striatum (2 min p.i.): 1.22 and 1.22 ± 0.02
SUV Blood (30 min p.i.): 0.40 ± 0.01
SUV Cerebellum (30 min p.i.): 2.62 and 2.62 ± 0.04
SUV Cerebrum total (30 min p.i.): 1.96 ± 0.03
SUV Cortex (30 min p.i.): 1.77 ± 0.04
SUV Hippocampus (30 min p.i.): 1.49 ± 0.03
SUV Striatum (30 min p.i.): 2.14 and 2.14 ± 0.04
SUV Blood (60 min p.i.): 0.30 ± 0.01
SUV Cerebellum (60 min p.i.): 1.75 ± 0.04
SUV Cerebrum total (60 min p.i.): 1.11 ± 0.06
SUV Cortex (60 min p.i.): 1.28 ± 0.02
SUV Hippocampus (60 min p.i.): 0.73 ± 0.06
SUV Striatum (60 min p.i.): 1.72 ± 0.02
